Data taken from patent US10874686B2, “Anthranilyl-adenosinemonosulfamate analogs and uses thereof” (Memorial Sloan-Kettering Cancer Center, priority 2015, dated 2020).

Columns and labels:
P. aeruginosa PqsA = P. aeruginosa PqsA (Pseudomonas aeruginosa, UniProt Q9I4X3); assay: PqsA inhibition, spectrophotometric assay with recombinant PqsA (anthranilyl-CoA formation at 365 nm); type: biochemical; settings: for inhibition at 10 µM: read-out: % inhibition at 10 μM of P. aeruginosa PqsA, 10 μM; for IC50: IC50 for inhibition of P. aeruginosa PqsA; for PqsA inhibition, potency in words: short time scale of the assay
Experimental: PqsA inhibitors were evaluated using a quantitative spectrophotometric assay with recombinant PqsA, detecting formation of anthranilyl-CoA at 365 nm. See, e.g., Coleman et al. (2008) J. Bacteriol. 190, 1247. […] See, e.g., Morrison et al. Biochim. Biophys. Acta, Enzymol. 185, 269-286; Williams et al. (1979) Methods Enzymol. 63, 437. […] See, e.g., Qiao et al. (2007) J. Am. Chem. Soc. 129, 6350.
Reactions were performed at 37° C. in a 0.5 mL volume in a Varian Cary 100 UV-visible spectrophotometer with Cary WinUV software. Reaction mixtures contained 100 mM HEPES, pH 8.0, 0.2 mM dithiothreitol, 2 mM MgCl2, ˜3.3 μg PqsA protein (˜60 nM final), and depending on which substrate varied, 1 mM ATP (disodium salt), 0.5 mM coenzyme A (tri-lithium salt), 0.5 mM sodium anthranilate, and inhibitor (usually as a DMSO stock solution). Reactions were blanked and preincubated with all components except anthranilate at 37° C. for 1 min, then initiated by addition of anthranilate. Formation of anthraniloyl-CoA was monitored ance at 365 nm (ε=5.5 mM−1 cm−1) for 1 min. Data were analyzed using GraphPad Prism 6 software.

PqsA = PqsA (Pseudomonas aeruginosa, UniProt Q9I4X3); settings: previous biochemical studies; read-out: Km as PqsA substrate; cited from earlier work
[1] = system: HHQ and PQS quinolone production in P. aeruginosa strain PA14; assay: Inhibition of HHQ and PQS quinolone production in P. aeruginosa strain PA14 (LC-MS/MS); type: cell-based, Pseudomonas aeruginosa; settings: 1.5 mM, HHQ 8 h, PQS 20 h
Experimental: The production of PQS and HHQ by strain PA14 was performed in triplicate in 14-mL round bottom falcon tubes containing 3-mL cultures in LB medium. Tubes were incubated at 37° C. in an orbital shaker at 225 rpm. Cultures were inoculated with 15-hour culture in LB in order to obtain a starting OD600=0.05, with or without inhibitors added. For PQS and HHQ analysis, a 20 μl aliquot was taken at time points as indicated. Each sample was diluted with 180 μL of methanol containing the internal standard (100 μM of d^4-PQS or d^4-HHQ) and 2% acetic acid. The solution was then vertexed and centrifuged at 13,000 g for 5 minutes, and the supernatant was transferred to a 96-well plates for LC-MS/MS analysis. Bacterial growth was measured by recording OD600 at 20 h to provide the data in FIG. 7A.
Liquid chromatography tandem mass spectrometry (LC-MS/MS) was carried out on an Agilent Technologies 6410 triple quad LC-MS/MS system with autosampler in electrospray ionization (ESI) mode, with an Agilent Zorbax Eclipse XDB-C18 reverse phase column (50×4.6 mm, 5 μm) using a flow rate of 0.5 mL/minute and an isocratic mobile phase of 60% CH3CN in 0.1% aqueous formic acid over 5 minutes. Positive electrospray in MRM mode was employed to quantify PQS and HHQ, using the ion transitions HHQ 244 to 159, d^4-HHQ 248 to 163, PQS 260 to 175, and d^4-PQS 264 to 179; shown in Table E3.
PqsA inhibitors 1-5 were evaluated for their ability to inhibit HHQ and PQS quinolone production in P. aeruginosa strain PA14 (FIG. 6). HHQ and PQS concentrations were determined by LC-MS/MS quantitation relative to deuterated internal standards. 6-Fluoroanthranilate (6FABA), a substrate analogue reported previously to inhibit quinolone production at millimolar concentrations, was used as a positive control. Compounds were initially tested at 1.5 mM concentration, and HHQ and PQS were quantified at 8 and 20 hours, respectively. These time points were selected based on an initial time course study of quinolone production in the absence of inhibitors, with HHQ or PQS production peaking at these respective time points. […] This could be due to differences in cell penetration, stability, and/or target specificity. Finally, because inhibitors of the quinolone quorum sensing pathway should not impact bacterial growth, we confirmed that none of the six inhibitors above inhibited growth over 20 h (FIG. 7A). Encouraged by the ability of anthranilyl-AMS (1) and anthranilyl-AMSN (2) to inhibit HHQ and PQS quinolone production, the activity of these two inhibitors and 6FABA were investigated in greater detail. In untreated controls, HHQ and PQS production peaked at 8 and 20 hours, respectively. Previously reported time course studies have similarly shown that HHQ levels peak at 6-8 hours while PQS levels continue to rise. See, e.g., Deziel et al. (2004) Proc. Natl. Acad. Sci. U.S.A 101, 1339; Kesarwani et al. (2011) PLoS Pathog. 7, e1002192. All three inhibitors were able to decrease quinolone production in a dose- and time-dependent manner (FIG. 2A). […] Such a perturbation might still be sufficient to impact P. aeruginosa virulence in vivo. […] See, e.g., Lesic et al. (2007) PLoS Pathog. 3, e126.

Row | SMILES | inhibition at 10 µM (P. aeruginosa PqsA) [%] | IC50 (P. aeruginosa PqsA) [nM] | other results
1 | Nc1ncnc2c1ncn2[C@@H]1O[C@H](COS(=O)(=O)NC2(c3ccccc3)COC2)[C@@H](O)[C@H]1O [DST-Pqs32] | 2.3 ± 0.9 |  | 
2 | Nc1ccccc1C(=O)NS(=O)(=O)OC[C@H]1O[C@@H](n2cnc3c(N)nc(Nc4ccccc4)nc32)[C@H](O)[C@@H]1O [JI-C-2013-451] | 95.1 ± 0.2 | 2070 | 
3 | Nc1ccccc1C(=O)NS(=O)(=O)OC[C@H]1O[C@@H](n2cnc3c(N)ncnc32)[C@H](N)[C@@H]1N [JI-C-2013-189] | 77.8 ± 0.2 | 7220 | 
4 | Nc1ccccc1C(=O)NS(=O)(=O)OC[C@H]1O[C@@H](n2cnc3c(NC4CC4)ncnc32)[C@H](O)[C@@H]1O [DST-Pqs17] | 1.3 ± 3 |  | 
5 | Nc1ccccc1C1(NS(=O)(=O)OC[C@H]2O[C@@H](n3cnc4c(N)ncnc43)[C@H](O)[C@@H]2O)COC1 [DST-Pqs33] | 4.6 ± 2.9 |  | 
6 | Nc1cc(C(F)(F)F)ccc1C(=O)NS(=O)(=O)OC[C@H]1O[C@@H](n2cnc3c(N)ncnc32)[C@H](O)[C@@H]1O [DST-Pqs10] | 1.1 ± 2.6 |  | 
7 | Nc1ccc(Cl)cc1C(=O)NS(=O)(=O)OC[C@H]1O[C@@H](n2cnc3c(N)ncnc32)[C@H](O)[C@@H]1O [DST-Pqs15] | 97.3 ± 0.9 | 1520 | 
8 | O=C(O)c1ccccc1 [benzoate] |  |  | Km (PqsA): 150 µM
9 | Nc1ncnc2c1ncn2[C@@H]1O[C@H](COS(=O)(=O)NC2(c3ccccc3F)COC2)[C@@H](O)[C@H]1O [DST-Pqs30] | < 1 |  | 
10 | CNc1ncnc2c1ncn2[C@@H]1O[C@H](COS(=O)(=O)NC(=O)c2ccccc2N)[C@@H](O)[C@H]1O [DST-Pqs19] | 32.1 ± 2.8 | 39200 | 
11 | Nc1ncnc2c1ncn2[C@@H]1O[C@H](CNS(=O)(=O)NC(=O)c2ccccc2O)[C@@H](O)[C@H]1O [salicyl-AMSN, Salicyl-AMSN, reference compound] |  |  | PqsA inhibition, potency in words (P. aeruginosa PqsA): potency similar to that of the cognate anthranilyl inhibitors; inhibition of quinolone production, in words [1]: less potent inhibitors of quinolone production
12 | Nc1ccccc1/C=C/S(=O)(=O)NC[C@H]1O[C@@H](n2cnc3c(N)ncnc32)[C@H](O)[C@@H]1O [compound 6, Anthranilyl-AVSN] |  |  | PqsA inhibition, potency in words (P. aeruginosa PqsA): not as effective
13 | Nc1ccccc1C(=O)NS(=O)(=O)OC[C@H]1O[C@@H](n2cnc3c(N)ncnc32)[C@H](O)[C@@H]1O [DST-Pqs1] | 98.6 ± 2.3 | 309 | 
14 | Nc1ncnc2c1ncn2[C@@H]1O[C@H](CNS(=O)(=O)/C=C/c2ccccc2O)[C@@H](O)[C@H]1O [compound 7, Salicyl-AVSN, reference compound] |  |  | PqsA inhibition, potency in words (P. aeruginosa PqsA): not as effective
15 | Nc1cccc(Cl)c1C(=O)NS(=O)(=O)OC[C@H]1O[C@@H](n2cnc3c(N)ncnc32)[C@H](O)[C@@H]1O [DST-Pqs16] | 100 | 552 | 
16 | NCc1ccc(Nc2nc(N)c3ncn([C@@H]4O[C@H](COS(=O)(=O)NC(=O)c5ccccc5N)[C@@H](O)[C@H]4O)c3n2)cc1 [DST-Pqs29] |  |  | % inhibition at 10 μM of P. aeruginosa PqsA (P. aeruginosa PqsA): 76.0 ± 1.3%
17 | Nc1c(Cl)cccc1C(=O)NS(=O)(=O)OC[C@H]1O[C@@H](n2cnc3c(N)ncnc32)[C@H](O)[C@@H]1O [DST-Pqs13] | 97.2 ± 1.2 | 1230 | 

Row | SMILES | inhibition at 10 µM (P. aeruginosa PqsA) [%] | IC50 (P. aeruginosa PqsA) [nM] | other results
18 | Nc1ncnc2c1ncn2[C@@H]1O[C@H](COS(=O)(=O)NC(=O)c2cccnc2Cl)[C@@H](O)[C@H]1O [DST-Pqs8] | 10.3 ± 5.3 |  | 
19 | NCc1ccccc1Nc1nc(N)c2ncn([C@@H]3O[C@H](COS(=O)(=O)NC(=O)c4ccccc4N)[C@@H](O)[C@H]3O)c2n1 [DST-Pqs27] | 84.8 ± 1.5 | 5240 | 
20 | Nc1cc(F)ccc1C(=O)NS(=O)(=O)OC[C@H]1O[C@@H](n2cnc3c(N)ncnc32)[C@H](O)[C@@H]1O [DST-Pqs11] | 100 | 107 | 
21 | Nc1ncnc2c1ncn2[C@@H]1O[C@H](COS(=O)(=O)NC(=O)c2ccccc2)[C@@H](O)[C@H]1O [Benzoyl-AMS, reference compound] |  |  | PqsA inhibition, potency in words (P. aeruginosa PqsA): somewhat weaker inhibitor; inhibition of quinolone production, in words [1]: less potent inhibitors of quinolone production
22 | Nc1ccccc1C(=O)NS(=O)(=O)OC[C@H]1O[C@@H](n2cnc3c(N)nc(C#Cc4ccccc4)nc32)[C@H](O)[C@@H]1O [JI-C-2013-456] | 95.9 ± 0.4 | 1460 | 
23 | Nc1ccccc1C(=O)NS(=O)(=O)OC[C@@H]1CC[C@H](n2cnc3c(N)ncnc32)O1 [JI-C-2014-025] | 91.2 ± 0.9 | 5000 | 
24 | Nc1cccc(F)c1C(=O)NS(=O)(=O)OC[C@H]1O[C@@H](n2cnc3c(N)ncnc32)[C@H](O)[C@@H]1O [DST-Pqs12] | 100 | 516 | 
25 | NCc1ccc(Nc2nc(N)c3ncn([C@@H]4O[C@H](COS(=O)(=O)NC(=O)c5ccccc5N)[C@@H](O)[C@H]4O)c3n2)cc1 [DST-Pqs28] |  |  | % inhibition at 10 μM of P. aeruginosa PqsA (P. aeruginosa PqsA): 9.5 ± 3.9%
26 | Nc1ccccc1C(=O)NS(=O)(=O)OC[C@H]1O[C@@H](n2cnc3c(N)ncnc32)C[C@@H]1O [JI-C-2014-008] | 99.8 ± 0.2 | 444 | 
27 | Nc1ccccc1C(=O)O [anthranilate] |  |  | Km (PqsA): 8 µM
28 | Nc1cc2ccccc2cc1C(=O)NS(=O)(=O)OC[C@H]1O[C@@H](n2cnc3c(N)ncnc32)[C@H](O)[C@@H]1O [DST-Pqs9] | < 1 |  | 
29 | Nc1cc(Cl)ccc1C(=O)NS(=O)(=O)OC[C@H]1O[C@@H](n2cnc3c(N)ncnc32)[C@H](O)[C@@H]1O [DST-Pqs14] |  | 828 | 
30 | CN(C)c1ncnc2c1ncn2[C@@H]1O[C@H](COS(=O)(=O)NC(=O)c2ccccc2N)[C@@H](O)[C@H]1O [DST-Pqs18] | 21.3 ± 1.9 |  | 
31 | Nc1ccccc1C(=O)NS(=O)(=O)OC[C@H]1O[C@@H](n2cnc3c(N)nc(-c4ccccc4)nc32)[C@H](O)[C@@H]1O [JI-C-2013-454] | 42.7 ± 0.2 | 25000 | 
32 | Nc1ccccc1C(=O)NS(=O)(=O)NC[C@H]1O[C@@H](n2cnc3c(N)ncnc32)[C@H](O)[C@@H]1O [DST-Pqs2] | 100 | 213 | 
33 | Nc1ncnc2c1ncn2[C@@H]1O[C@H](COS(=O)(=O)NC2(c3ccccc3O)COC2)[C@@H](O)[C@H]1O [DST-Pqs31] | < 1 |  | 
34 | Nc1ncnc2c1ncn2[C@@H]1O[C@H](COS(=O)(=O)NC(=O)c2ccccc2O)[C@@H](O)[C@H]1O [salicyl-AMS, Salicyl-AMS, reference compound] |  |  | PqsA inhibition, potency in words (P. aeruginosa PqsA): potency similar to that of the cognate anthranilyl inhibitors; inhibition of quinolone production, in words [1]: less potent inhibitors of quinolone production
